Results as given in US20130252924A1, “Compounds and Methods for Treating Pain” (AKRON MOLECULES GMBH, priority 2010, published 2013).
Structures can show the parent of a compound that is named as a salt.

What was measured:
human PDE4D = biological target: T1, human PDE4D (Homo sapiens, UniProt Q08499); assay: Measurement of PDE4D activity and determination of IC50 (scintillation bead assay, 3H-cAMP); format: biochemical; details: PDE4D inhibitor
T1 construct: The cloning of catalytic domains of human PDE4D as well as the expression and purification of the PDE catalytic domains; made in house
Procedure: The half maximal inhibitory concentration (IC50) is a measure of the effectiveness of a compound in inhibiting biological or biochemical function. Concentration-response plots are used to determine the effects of an inhibitor on an enzymatic reaction.
Measurement of phosphodiesterase activity takes advantage of the selective binding of 5-AMP or 5-GMP (and not cAMP or cGMP) to yttrium silicate beads with embedded scintillant. 0.1-1 nM PDE was incubated with 50 nM 3H-cAMP or 70 nM 3H-cGMP (Amersham, 5-60 Ci/mmol) in 50 mM Tris (pH 7.5), 8.3 mM MgCl2, 1.7 mM EGTA, and 0.01% BSA at 30 C for 30 min in 384-well assay plates. The assay was terminated by adding one-third volume of 5 mg/ml yttrium silicate beads in 18 mM ZnAcetate/ZnSO4 solution (3:1). A minimum of 30 min after mixing and centrifuging the reaction, hydrolysis was quantified by reading in a scintillation counter (Trilux, […] Wallac).

FRK = biological target: T2, FRK (Homo sapiens, UniProt P42685); assay: Binding affinity (Kd), KinomeScan kinase binding assay; details: FRK inhibitor
T2 construct: either the full length protein or with a kinase construct that spans the catalytic domain
Excerpt: The assay can be performed with either the full length protein or with a kinase construct that spans the catalytic domain.

[1] = test system: rats with peripheral mononeuropathy induced by loose ligation of the sciatic nerve; details: background statement; cited from earlier work
[2] = test system: rats with inflammatory pain induced by injection of an adjuvant (CFA); details: background statement on the positive control; cited from earlier work

T1 sequence (Q08499 386-715 limits assumed): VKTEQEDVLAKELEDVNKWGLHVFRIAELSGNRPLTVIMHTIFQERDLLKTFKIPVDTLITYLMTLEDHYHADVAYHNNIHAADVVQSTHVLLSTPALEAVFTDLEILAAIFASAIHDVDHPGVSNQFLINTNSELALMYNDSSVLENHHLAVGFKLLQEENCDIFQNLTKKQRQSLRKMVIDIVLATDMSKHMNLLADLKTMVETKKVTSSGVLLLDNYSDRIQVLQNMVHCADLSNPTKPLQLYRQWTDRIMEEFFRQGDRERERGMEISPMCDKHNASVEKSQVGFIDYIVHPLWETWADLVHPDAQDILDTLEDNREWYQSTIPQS
T2 sequence (P42685 whole entry, the tested form may be a part): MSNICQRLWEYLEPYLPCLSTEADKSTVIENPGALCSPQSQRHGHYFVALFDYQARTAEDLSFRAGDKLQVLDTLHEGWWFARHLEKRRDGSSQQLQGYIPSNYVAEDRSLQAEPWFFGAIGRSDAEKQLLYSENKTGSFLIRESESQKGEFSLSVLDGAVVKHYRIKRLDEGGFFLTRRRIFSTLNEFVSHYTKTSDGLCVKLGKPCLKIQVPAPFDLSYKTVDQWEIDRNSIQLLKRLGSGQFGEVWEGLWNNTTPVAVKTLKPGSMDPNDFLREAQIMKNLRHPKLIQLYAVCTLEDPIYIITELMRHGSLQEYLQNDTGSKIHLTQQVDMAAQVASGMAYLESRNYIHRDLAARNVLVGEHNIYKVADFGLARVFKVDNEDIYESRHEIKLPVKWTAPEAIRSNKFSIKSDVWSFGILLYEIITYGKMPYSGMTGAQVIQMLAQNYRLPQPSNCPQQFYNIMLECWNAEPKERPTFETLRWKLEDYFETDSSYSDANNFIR

Row | Molecule | IC50 (human PDE4D) | also measured
1 | COc1ccc([C@H](Cc2ccncc2)c2ccccc2)cc1OC1CCCC1 [CDP-840, 4-[(2R)-2-[3-(Cyclopentyloxy)-4-methoxyphenyl]-2-phenylethyl]-pyridine hydrochloride] | 2.1 nM | –
2 | CCCOc1cc([C@]2(C)CNC(=O)O2)ccc1OC [Daxalipram] | 1100 nM | –
3 | COc1ccc(/C(C)=N/OC(N)=O)cc1OC1CCCC1 [Filaminast] | 1000 nM | –
4 | Cc1c[n+]([O-])ccc1CC(c1ccc(C(O)(C(F)(F)F)C(F)(F)F)cc1)c1ccc(OC(F)F)c(OC(F)F)c1 [L-826,141, 4-[2-[3,4-Bis(difluoromethoxy)phenyl]-2-[4-[2,2,2-trifluoro-1-hydroxy-1-(trifluoro-methyl)ethyl]phenyl]ethyl]-3-methylpyridine N-oxide] | 2.4 nM | –
5 | CCOc1cc2ncc(C#N)c(Nc3ccc(F)c(Cl)c3)c2cc1NC(=O)/C=C/CN(C)C [Pelitinib] | – | Kd (FRK): 190 nM
6 | CC(C)C[C@H](CN)CC(=O)O [Pregabalin] | – | ameliorating symptoms of pain in the CCl model [1]: effective at ameliorating symptoms of pain
7 | O=C(Nc1c(Cl)c[n+]([O-])cc1Cl)c1ccc(OC(F)F)c2oc3ccncc3c12 [Revamilast] | 2.7 nM | –
8 | O=C(Nc1c(Cl)cncc1Cl)C(=O)c1cn(Cc2ccc(F)cc2)c2ncccc12 [Ronomilast] | 3.5 nM | –
9 | CCOc1ccc(-c2nc(-c3cccc(C(=O)O)n3)cs2)cc1OCC [Tetomilast, 6-[2-(3,4-diethoxyphenyl)-1,3-thiazol-4-yl]pyridine-2-carboxylic acid] | 70 nM | –
10 | CCC1C(C)=NN=C(c2ccc(OC)c(OC)c2)c2cc(OC)c(OC)cc21 (centres unmarked) [Tofisopam, 1-(3,4-dimethoxyphenyl)-5-ethyl-7,8-dimethoxy-4-methyl-5H-2,3-benzodiazepine] | 900 nM | –
11 | CCNc1ncn(Cc2ccc(OC)c(OC3CCCC3)c2)c2nc(C(C)C)nc1-2 [V11294, -[(3-cyclopentyloxy-4-methoxyphenyl)methyl]-N-ethyl-8-propan-2-ylpurin-6-amine:] | 200 nM | –
12 | COc1ccc2c(c1)c(CC(=O)O)c(C)n2C(=O)c1ccc(Cl)cc1 [indomethacin] | – | efficacy in the CFA model [2]: demonstrated efficacy
13 | CS(=O)(=O)Nc1ccc2oc3c(OC(F)F)ccc(C(=O)Nc4c(Cl)cncc4Cl)c3c2c1 [oglemilast] | 166 nM | –
14 | Tolafentrine | 30 nM | –
